# Experimental data: patent publication US20100028889A1, “COMPANION DIAGNOSTIC ASSAYS FOR CANCER THERAPY” (ABBOTT LABORATORIES, priority 2006, published 2010)
# Read-outs that look alike come from different tables or passages of the source.
# How the values were obtained:
# Test in all cases: cell cytotoxicity EC50, CellTiter Glo, SCLC cell line
# Type in all cases: cell-based, human
# DMS153 = system: DMS153
# Experimental: (§1) The SCLC and leukemia/lymphoma cell lines listed below were obtained from the American Type Culture Collection (Manassas, Va.), Deutsche Sammlung von Mikroorganismen und Zellkulturen (DSMZ, Braunsweig, Germany), or were the generous gift from Dr. Louis Staudt (National Cancer Institute) and were cultured as described in Tse, C., Shoemaker, A. R., Adickes, J., et al., “ABT-263: a potent and orally bioavailable Bcl-2 family inhibitor,” Cancer Res 2008; 68: 3421-3428; and Tahir, S. K., Yang, X., Anderson, M. G., et al., “Influence of Bcl-2 family members on the cellular response of small-cell lung cancer cell lines to ABT-737,” Cancer Res 2007; 67: 1176-1183.
# (§2) Cells were treated at 10,000 or 50,000 cells per well for adherent or suspension cells, respectively, in 96-well microtiter plates in the presence of 10% human serum for 48 hours with or without ABT-263, in a humidified chamber with 5% CO2. ABT-263 was synthesized as previously described in Tse, C., Shoemaker, A. R., Adickes, J., et al., “ABT-263: a potent and orally bioavailable Bcl-2 family inhibitor,” Cancer Res 2008; 68: 3421-3428; and Oltersdorf, T., Elmore, S. W., Shoemaker, A. R., et al., “An inhibitor of Bcl-2 family proteins induces regression of solid tumours,” Nature 2005; 435: 677-681, and cell cytotoxicity EC50 values were assessed using CellTiter Glo (Promega, Madison Wis.).
# NCI-1048 = system: NCI-1048
# Experimental: as §1, §2
# NCI-H889 = system: NCI-H889
# Experimental: as §1, §2
# NCI-H69 = system: NCI-H69
# Experimental: as §1, §2
# NCI-H1930 = system: NCI-H1930
# Experimental: as §1, §2
# NCI-H378 = system: NCI-H378
# Experimental: as §1, §2
# NCI-H2107 = system: NCI-H2107
# Experimental: as §1, §2
# NCI-H1963 = system: NCI-H1963
# Experimental: as §1, §2
# NCI-H1436 = system: NCI-H1436
# Experimental: as §1, §2
# NCI-H187 = system: NCI-H187
# Experimental: as §1, §2
# NCI-H526 = system: NCI-H526
# Experimental: as §1, §2
# NCI-H1836 = system: NCI-H1836
# Experimental: as §1, §2
# NCI-H146 = system: NCI-H146
# Experimental: as §1, §2
# DMS 53 = system: DMS 53
# Experimental: as §1, §2
# NCI-H128 = system: NCI-H128
# Experimental: as §1, §2
# NCI-1417 = system: NCI-1417
# Experimental: as §1, §2
# NCI-H196 = system: NCI-H196
# Experimental: as §1, §2
# DMS79 = system: DMS79
# Experimental: as §1, §2
# NCI-211 = system: NCI-211
# Experimental: as §1, §2
# NCI-H847 = system: NCI-H847
# Experimental: as §1, §2
# NCI-H209 = system: NCI-H209
# Experimental: as §1, §2
# NCI-H82 = system: NCI-H82
# Experimental: as §1, §2
# NCI-H345 = system: NCI-H345
# Experimental: as §1, §2
# NCI-H510 = system: NCI-H510
# Experimental: as §1, §2
# NCI-H446 = system: NCI-H446
# Experimental: as §1, §2
# SW 1271 = system: SW 1271
# Experimental: as §1, §2
# NCI-H1672 = system: NCI-H1672
# Experimental: as §1, §2
# NCI-H2081 = system: NCI-H2081
# Experimental: as §1, §2
# NCI-H524 = system: NCI-H524
# Experimental: as §1, §2
# H69AR = system: H69AR
# Experimental: as §1, §2
# [1] = 10% human serum, 48 hours, read-out: EC50
# [2] = Homo sapiens, read-out: Response Designation
smiles,measurement,setting,value
"CC1(C)CCC(c2ccc(Cl)cc2)=C(CN2CCN(c3ccc(C(=O)NS(=O)(=O)c4ccc(N[C@H](CCN5CCOCC5)CSc5ccccc5)c(S(=O)(=O)C(F)(F)F)c4)cc3)CC2)C1 [ABT-263, N-(4-(4-((2-(4-chlorophenyl)-5,5-dimethyl-1-cyclohex-1-en-1-yl)methyl)piperazin-1-yl)benzoyl)-4-(((1R)-3-(morpholin-4-yl)-1-((phenylsulfanyl)methyl)propyl)amino)-3-((trifluoromethyl)sulfonyl)benzenesulfonamide]",EC50,"DMS153; DMS-153, 10% human serum, 48 hours, read-out: EC50",11 µM
same,EC50,"DMS153; Homo sapiens, DMS-153, read-out: Response Designation",> 4.1 µM
same,EC50,NCI-1048; [1],2.86 µM
same,EC50,NCI-1048; [2],≤ 4.1 µM
same,EC50,NCI-H889; [1],0.14 µM
same,EC50,NCI-H889; [2],≤ 4.1 µM
same,EC50,NCI-H69; [1],0.71 µM
same,EC50,NCI-H69; [2],≤ 4.1 µM
same,EC50,NCI-H1930; [1],3 µM
same,EC50,NCI-H1930; [2],≤ 4.1 µM
same,EC50,NCI-H378; [1],> 50 µM
same,EC50,NCI-H378; [2],> 4.1 µM
same,EC50,NCI-H2107; [1],0.3 µM
same,EC50,NCI-H2107; [2],≤ 4.1 µM
same,EC50,NCI-H1963; [1],0.18 µM
same,EC50,NCI-H1963; [2],≤ 4.1 µM
same,EC50,NCI-H1436; [1],1 µM
same,EC50,NCI-H1436; [2],≤ 4.1 µM
same,EC50,NCI-H187; [1],0.21 µM
same,EC50,NCI-H187; [2],≤ 4.1 µM
same,EC50,NCI-H526; [1],12.6 µM
same,EC50,NCI-H526; [2],> 4.1 µM
same,EC50,NCI-H1836; [1],0.4 µM
same,EC50,NCI-H1836; [2],≤ 4.1 µM
same,EC50,NCI-H146; [1],0.11 µM
same,EC50,NCI-H146; [2],≤ 4.1 µM
same,EC50,DMS 53; [1],1.6 µM
same,EC50,DMS 53; [2],≤ 4.1 µM
same,EC50,NCI-H128; [1],2.5 µM
same,EC50,NCI-H128; [2],≤ 4.1 µM
same,EC50,NCI-1417; [1],0.36 µM
same,EC50,NCI-1417; [2],≤ 4.1 µM
same,EC50,NCI-H196; [1],38.6 µM
same,EC50,NCI-H196; [2],> 4.1 µM
same,EC50,"DMS79; DMS-79, 10% human serum, 48 hours, read-out: EC50",1.9 µM
same,EC50,"DMS79; Homo sapiens, DMS-79, read-out: Response Designation",≤ 4.1 µM
same,EC50,NCI-211; [1],0.41 µM
same,EC50,NCI-211; [2],≤ 4.1 µM
same,EC50,NCI-H847; [1],0.06 µM
same,EC50,NCI-H847; [2],≤ 4.1 µM
same,EC50,NCI-H209; [1],1.15 µM
same,EC50,NCI-H209; [2],≤ 4.1 µM
same,EC50,NCI-H82; [1],22.4 µM
same,EC50,NCI-H82; [2],> 4.1 µM
same,EC50,NCI-H345; [1],2.16 µM
same,EC50,NCI-H345; [2],≤ 4.1 µM
same,EC50,NCI-H510; [1],1.22 µM
same,EC50,NCI-H510; [2],≤ 4.1 µM
same,EC50,NCI-H446; [1],4.1 µM
same,EC50,NCI-H446; [2],≤ 4.1 µM
same,EC50,"SW 1271; Homo sapiens, SW1271, read-out: Response Designation",> 4.1 µM
same,EC50,"SW 1271; SW1271, 10% human serum, 48 hours, read-out: EC50",33.9 µM
same,EC50,NCI-H1672; [1],0.7 µM
same,EC50,NCI-H1672; [2],≤ 4.1 µM
same,EC50,NCI-H2081; [1],12 µM
same,EC50,NCI-H2081; [2],> 4.1 µM
same,EC50,NCI-H524; [1],0.08 µM
same,EC50,NCI-H524; [2],≤ 4.1 µM
same,EC50,H69AR; [1],22.3 µM
same,EC50,H69AR; [2],> 4.1 µM
